Results from publication PMC3229200 (Bioorganic & medicinal chemistry, 2011).

Assays:
[1] = molecular target: σ1 receptor (Homo sapiens, UniProt Q99720); type: binding; details: 10 μM competing compound, 1 nM [125I]-IAF, RT4 cell membranes
[2] = molecular target: σ2 receptor (Homo sapiens, UniProt Q5BJF2); type: binding; details: 10 μM competing compound, 1 nM [125I]-IAF, RT4 cell membranes
[3] = molecular target: T1, σ2 receptor (Rattus norvegicus, UniProt Q5U3Y7); experiment: Competitive σ2 receptor radioligand binding
T1 sequence (Q5U3Y7 1-176): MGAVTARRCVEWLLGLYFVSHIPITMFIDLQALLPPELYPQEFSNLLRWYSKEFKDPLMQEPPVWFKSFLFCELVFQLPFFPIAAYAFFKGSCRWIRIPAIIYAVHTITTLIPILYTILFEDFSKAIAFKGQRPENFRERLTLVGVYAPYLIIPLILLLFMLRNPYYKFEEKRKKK

Chain of σ2 receptor (Homo sapiens, UniProt Q5BJF2) (Q5BJF2 whole entry): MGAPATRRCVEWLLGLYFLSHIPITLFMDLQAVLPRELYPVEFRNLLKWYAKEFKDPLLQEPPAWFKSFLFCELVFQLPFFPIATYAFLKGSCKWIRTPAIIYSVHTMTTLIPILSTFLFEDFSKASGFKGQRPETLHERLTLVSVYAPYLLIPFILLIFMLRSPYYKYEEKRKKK
Chain of σ1 receptor (Q99720 whole entry): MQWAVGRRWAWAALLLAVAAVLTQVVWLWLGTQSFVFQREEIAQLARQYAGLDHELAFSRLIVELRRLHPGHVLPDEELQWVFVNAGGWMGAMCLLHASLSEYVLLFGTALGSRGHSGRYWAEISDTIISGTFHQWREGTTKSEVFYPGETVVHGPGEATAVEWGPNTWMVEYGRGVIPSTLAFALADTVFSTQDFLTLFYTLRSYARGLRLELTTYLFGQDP

Row | SMILES | Blocking of σ1 receptor photolabeling by [125I]-IAF [1] | Blocking of σ2 receptor photolabeling by [125I]-IAF [2] | Selectivity for the σ2 over the σ1 receptor [3] | Improvement of σ2 selectivity relative to the σ1 receptor, versus 5f ([3]; 5e compared to 5f) [fold] | Increase of σ2 affinity versus 5f ([3]; 5e compared to 5f) [fold] | Increase of σ2 affinity in comparison to compound 5h ([3]; 5g compared to 5h) [fold]
1 | O=C1c2ccccc2C(=O)N1CCCCN1CCc2ccc([N+](=O)[O-])cc2C1 [Compound 3b, 2-(4-(7-Nitro-3,4-dihydroisoquinoline-2(1H)-yl)butyl)isoindoline-1,3-dione] | diminished both bands | diminished both bands | – | – | – | –
2 | COc1ccc(C(=O)NCCCCN2CCc3ccc([N+](=O)[O-])cc3C2)c(OC)c1OC [Compound 5e, 2,3,4-Trimethoxy-N-(4-(7-nitro-3,4-dihydroisoquinoline-2(1H)-yl)butyl)benzamide] | left σ1 labeling essentially unaltered | eliminated σ2 labeling | ~ 400 fold | 631 | 500 | –
3 | COc1cccc(C(=O)NCCCCN2CCc3ccc([N+](=O)[O-])cc3C2)c1OC [Compound 5f, 2,3-Dimethoxy-N-(4-(7-nitro-3,4-dihydroisoquinoline-2(1H)-yl)butyl)benzamide] | did not block the labeling of either receptor | did not block the labeling of either receptor | – | – | – | –
4 | COc1c(I)ccc(C(=O)NCCCCN2CCc3ccc([N+](=O)[O-])cc3C2)c1O [Compound 5g, 2-Hydroxy-4-iodo-3-methoxy-N-(4-(7-nitro-3,4-dihydroisoquinoline-2(1H)-yl)butyl)benzamide] | – | – | – | – | – | 4.5
5 | O=C(CCCN1CCC(O)(c2ccc(Cl)cc2)CC1)c1ccc(F)cc1 [haloperidol, reference compound] | – | blocked photolabeling | – | – | – | –
